For series [1], the target named is nicotinic receptors containing the α4β2 subunit (Rattus norvegicus, UniProt P09483+P12390). The series is described as follows: Affinity for nicotinic receptors containing the α4β2 subunit, [3H]-cytisine binding to rat brain membranes. The conditions noted are these: read-out: Percentage of inhibition of the specific binding of [3H]-cytisine at a dose of 1 μM, for the α4β2 subunit. On the procedure:
The compounds of the invention were also studied as regards their affinity for nicotinic receptors containing the α4β2 subunit according to the methods described by Anderson and Arneric, Eur. J. Pharmacol (1994), 253, 261, and by Hall et al., Brain Res. (1993), 600, 127.
Male Sprague Dawley rats weighing 150 to 200 g are decapitated and the entire brain is removed quickly, homogenized in 15 volumes of 0.32 M sucrose solution at 4° C. and then centrifuged at 1000×g for 10 min. The pellet is discarded and the supernatant is centrifuged at 20 000×g for 20 min at 4° C. The pellet is recovered and homogenized using a Polytron™ mill in 15 volumes of double-distilled water at 4° C., followed by centrifugation at 8000×g for 20 min. The pellet is discarded and the supernatant and the buffy coat are centrifuged at 40 000×g for 20 min, the pellet is recovered, resuspended in 15 ml of double-distilled water and centrifuged again at 40 000×g, before being stored at −80° C.
On the day of the experiment, the tissue is thawed slowly and suspended in 3 volumes of buffer. 150 μl of this membrane suspension are incubated at 4° C. for 120 min in the presence of 100 μl of 1 nM [^3H]-cytisine in a final volume of 500 μl of buffer, in the presence or absence of test compound. The reaction is stopped by filtration on Whatman GF/B™ filters pretreated with polyethyleneimine, the filters are rinsed with 2×5 ml of buffer at 4° C. and the radioactivity retained on the filter is measured by liquid scintigraphy. The non-specific binding is determined in the presence of 10 μM (−)-nicotine; the non-specific binding represents […] of the total binding recovered on the filter. For each concentration of test compound, the percentage of inhibition of the specific binding of [^3H]-cytisine is determined, at doses of 1 μM and 10 μM. For the most affine compounds of the invention, the IC50 value is calculated, which is the concentration of compound that inhibits the specific binding by 50%.

The target in series [2] is nicotinic receptors containing the α7 subunit (Rattus norvegicus, UniProt Q05941). Briefly: biochemical. It is filed as binding.
Sequence of nicotinic receptors containing the α7 subunit (Q05941 23-502): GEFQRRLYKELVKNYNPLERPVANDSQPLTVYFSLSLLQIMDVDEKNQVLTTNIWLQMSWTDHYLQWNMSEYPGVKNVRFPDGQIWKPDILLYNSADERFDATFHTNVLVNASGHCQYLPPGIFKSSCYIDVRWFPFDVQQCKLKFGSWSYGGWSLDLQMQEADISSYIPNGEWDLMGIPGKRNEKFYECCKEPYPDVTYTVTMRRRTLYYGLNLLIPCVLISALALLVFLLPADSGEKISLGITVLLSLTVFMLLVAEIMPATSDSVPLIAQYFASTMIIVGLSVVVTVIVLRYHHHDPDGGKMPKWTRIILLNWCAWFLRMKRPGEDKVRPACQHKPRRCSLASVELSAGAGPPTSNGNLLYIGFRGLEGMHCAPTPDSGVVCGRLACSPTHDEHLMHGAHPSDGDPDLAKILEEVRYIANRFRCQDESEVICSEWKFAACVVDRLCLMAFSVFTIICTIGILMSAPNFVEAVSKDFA
[3] abbreviates: compound at 1 μM, 1 nM [3H]-cytisine, rat brain membranes.

Counter-ions that a name gives are not always drawn. Like-named read-outs stand apart in the source and are kept apart here.

Sequence of nicotinic receptors containing the α4β2 subunit (P09483 31-630): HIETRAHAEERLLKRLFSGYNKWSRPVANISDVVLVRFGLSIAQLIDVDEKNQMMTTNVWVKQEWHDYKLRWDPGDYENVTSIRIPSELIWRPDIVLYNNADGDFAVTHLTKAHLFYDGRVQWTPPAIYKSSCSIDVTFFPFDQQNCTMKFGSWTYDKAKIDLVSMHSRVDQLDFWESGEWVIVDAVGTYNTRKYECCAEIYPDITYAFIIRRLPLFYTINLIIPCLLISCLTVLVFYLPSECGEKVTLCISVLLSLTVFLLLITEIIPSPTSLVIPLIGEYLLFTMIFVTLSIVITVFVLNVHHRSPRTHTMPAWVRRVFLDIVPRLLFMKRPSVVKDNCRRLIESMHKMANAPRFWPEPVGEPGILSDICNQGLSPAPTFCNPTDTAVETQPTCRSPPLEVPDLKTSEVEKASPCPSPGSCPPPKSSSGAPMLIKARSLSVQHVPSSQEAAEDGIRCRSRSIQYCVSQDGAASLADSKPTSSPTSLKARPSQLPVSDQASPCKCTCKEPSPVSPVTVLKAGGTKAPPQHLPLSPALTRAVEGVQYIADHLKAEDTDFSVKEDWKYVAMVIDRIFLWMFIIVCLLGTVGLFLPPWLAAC
Sequence of nicotinic receptors containing the α4β2 subunit (P12390 25-500): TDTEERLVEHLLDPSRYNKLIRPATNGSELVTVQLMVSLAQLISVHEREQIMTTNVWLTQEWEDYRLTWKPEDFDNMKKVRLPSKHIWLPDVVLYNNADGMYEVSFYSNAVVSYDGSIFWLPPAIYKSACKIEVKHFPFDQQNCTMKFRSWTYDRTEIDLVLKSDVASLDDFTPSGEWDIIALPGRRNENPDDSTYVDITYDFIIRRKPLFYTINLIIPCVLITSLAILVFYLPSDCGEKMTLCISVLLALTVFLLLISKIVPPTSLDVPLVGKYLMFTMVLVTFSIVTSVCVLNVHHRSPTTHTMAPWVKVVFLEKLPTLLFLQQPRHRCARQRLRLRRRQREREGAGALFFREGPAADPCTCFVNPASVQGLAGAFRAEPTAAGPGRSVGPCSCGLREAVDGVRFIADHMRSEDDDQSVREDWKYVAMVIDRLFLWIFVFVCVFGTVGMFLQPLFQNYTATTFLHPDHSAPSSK

For `C1=CC2(c3ccc(-c4ncc[nH]4)nc3)CCN(C1)C2` (single isomer, unassigned) (as salt: HBr) [Compound 14], the melting point was in the range of 234 to 236 °C. Still for that read-out and setting: the figure for `CCCn1cc(-c2ccc(C34C=CCN(CC3)C4)cn2)cn1` (stereo not drawn) (as salt: HBr) is 190 to 192 °C. With `C1=CC2(c3ccc(-c4c[nH]cn4)nc3)CCN(C1)C2` (single isomer, unassigned) [Compound 9], the inhibition at 1 µM in series [1] (setting [3]) worked out at 24%. The compound also had an IC50 in series [2] of 300 nM.

On to `CC(C)Cn1cc(-c2ccc(C34C=CCN(CC3)C4)cn2)cn1` (stereo not drawn) (as salt: HBr), for which the melting point fell in the range of 104 to 106 °C. As to `C1=CC2(c3ccc(-n4ccnc4)nc3)CCN(C1)C2` (single isomer, unassigned) [Compound 11], the inhibition at 1 µM in series [1] was 36%. Also, the IC50 in series [2] (read-out: IC50 α7) was 83 nM. For the compound `Cn1cc(-c2ccc(C34CCCN(CC3)C4)cn2)cn1` (racemic), the melting point was 138 to 140 °C. On the same count and under the same terms, the figure for `C1=CC2(c3ccc(-c4cc[nH]n4)nc3)CCN(C1)C2` (stereo not drawn) (as salt: HBr) is 273 to 275 °C. Turning to `C1=CC2(c3ccc(-c4ncc[nH]4)nc3)CCN(C1)C2` (single isomer, unassigned) [Compound 14], the inhibition at 1 µM in series [1] (setting [3]) is 45%. Also, in series [2], the IC50 came to 99 nM. For the compound `C1=CC2(c3ccc(-c4cscn4)nc3)CCN(C1)C2` (stereo not drawn) (as salt: HBr), the melting point was in the range of 272 to 274 °C.
